Source: patent US8613914B2, “Peptidomimetic sulfamide compounds and antiviral uses thereof” (Novartis AG, priority 2009, dated 2013)
pIC50: −log10 of the molar value.

Molecular target: HCV NS3-4A serine protease (full-length NS3-4A protein) (Hepatitis C virus genotype 1a (isolate 1) (HCV), UniProt P26664)
Experiment: HCV NS3-4A protease assay
Assay type: biochemical, HCV genotype 1a
Conditions: strain HCV-1, fluorogenic peptide substrate, read-out: Protease assay Ex. 12 IC50
Protocol: The inhibitory activity of certain compounds of Table A against HCV NS3-4A serine protease is determined in a homogenous assay using the full-length NS3-4A protein (genotype 1a, strain HCV-1) and a commercially available internally-quenched fluorogenic peptide substrate as described by Taliani, M., et al. 1996 Anal. Biochem. 240:60-67, which is incorporated by reference in its entirety.

Chain of HCV NS3-4A serine protease (full-length NS3-4A protein) (P26664 1027-1657): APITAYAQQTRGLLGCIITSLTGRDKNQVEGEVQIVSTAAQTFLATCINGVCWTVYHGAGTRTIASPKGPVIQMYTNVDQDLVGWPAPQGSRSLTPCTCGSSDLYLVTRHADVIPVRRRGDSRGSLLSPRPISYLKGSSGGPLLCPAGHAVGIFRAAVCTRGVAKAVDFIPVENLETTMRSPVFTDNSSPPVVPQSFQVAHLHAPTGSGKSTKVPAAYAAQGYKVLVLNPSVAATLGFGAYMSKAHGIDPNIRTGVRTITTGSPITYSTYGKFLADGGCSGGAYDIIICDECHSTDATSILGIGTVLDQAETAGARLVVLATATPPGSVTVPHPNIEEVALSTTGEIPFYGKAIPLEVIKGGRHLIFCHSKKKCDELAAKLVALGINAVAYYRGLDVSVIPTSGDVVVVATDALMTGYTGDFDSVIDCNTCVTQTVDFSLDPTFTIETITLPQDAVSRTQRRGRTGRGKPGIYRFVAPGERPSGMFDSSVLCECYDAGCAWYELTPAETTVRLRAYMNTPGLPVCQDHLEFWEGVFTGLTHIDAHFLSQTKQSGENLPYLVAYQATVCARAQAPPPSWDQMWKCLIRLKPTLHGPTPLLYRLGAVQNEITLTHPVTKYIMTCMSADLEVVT
Chain of HCV NS3-4A serine protease (full-length NS3-4A protein) (P26664 1658-1711 partner): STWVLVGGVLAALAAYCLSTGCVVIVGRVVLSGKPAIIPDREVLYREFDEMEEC

Row | SMILES | pIC50
1 | C=C[C@@H]1C[C@]1(NC(=O)[C@@H]1C[C@@]2(CN1C(=O)[C@@H](NC(=O)[C@@H](NC(=O)c1ccc3occc3c1)C1CCCCC1)C(C)(C)C)C(C)(C)C21CCC1)C(=O)NS(=O)(=O)N1CCCC1 [Compound 192, (5R,8S)-7-[(2S)-2-({[(1-benzofuran-5-ylcarbonyl)amino](cyclohexyl)acetyl}amino)-3,3-dimethylbutanoyl]-10,10-dimethyl-N-{(1R,2S)-1-[(pyrrolidin-1-ylsulfonyl)carbamoyl]-2-vinylcyclopropyl}-7-azadispiro[3.0.4.1]decane-8-carboxamide] | 7.60
2 | C=C[C@@H]1C[C@]1(NC(=O)[C@@H]1C[C@@]2(CN1C(=O)[C@@H](NC(=O)[C@@H](NC(=O)[C@@H](OC)c1ccccc1)C1CCCCC1)C(C)(C)C)C(C)(C)C21CCC1)C(=O)NS(=O)(=O)N1CCCC1 [Compound 193, (5R,8S)-7-{(2S)-2-[(cyclohexyl{[(2S)-2-methoxy-2-phenylacetyl]amino}acetyl)amino]-3,3-dimethylbutanoyl}-10,10-dimethyl-N-{(1R,2S)-1-[(pyrrolidin-1-ylsulfonyl)carbamoyl]-2-vinylcyclopropyl}-7-azadispiro[3.0.4.1]decane-8-carboxamide] | 7.60
3 | C=C[C@@H]1C[C@]1(NC(=O)[C@@H]1C[C@@]2(CN1C(=O)[C@@H](NC(=O)[C@@H](NC(=O)C1CCN(C(C)=O)CC1)C1CCCCC1)C(C)(C)C)C(C)(C)C21CCC1)C(=O)NS(=O)(=O)N1CCCC1 [Compound 194, (5R,8S)-7-[(2S)-2-{[{[(1-acetylpiperidin-4-yl)carbonyl]amino}(cyclohexyl)acetyl]amino}-3,3-dimethylbutanoyl]-10,10-dimethyl-N-{(1R,2S)-1-[(pyrrolidin-1-ylsulfonyl)carbamoyl]-2-vinylcyclopropyl}-7-azadispiro[3.0.4.1]decane-8-carboxamide] | 8.00
4 | C=C[C@@H]1C[C@]1(NC(=O)[C@@H]1C[C@@]2(CN1C(=O)[C@@H](NC(=O)[C@@H](NC(=O)c1nccc3ccccc13)C1CCCCC1)C(C)(C)C)C(C)(C)C21CCC1)C(=O)NS(=O)(=O)N1CCCC1 [Compound 195, (5R,8S)-7-[(2S)-2-({cyclohexyl[(isoquinolin-1-ylcarbonyl)amino]acetyl}amino)-3,3-dimethylbutanoyl]-10,10-dimethyl-N-{(1R,2S)-1-[(pyrrolidin-1-ylsulfonyl)carbamoyl]-2-vinylcyclopropyl}-7-azadispiro[3.0.4.1]decane-8-carboxamide] | 7.12
5 | C=C[C@@H]1C[C@]1(NC(=O)[C@@H]1C[C@@]2(CN1C(=O)[C@@H](NC(=O)[C@@H](NC(=O)c1cnc3ccccc3c1)C1CCCCC1)C(C)(C)C)C(C)(C)C21CCC1)C(=O)NS(=O)(=O)N1CCCC1 [Compound 196, (5R,8S)-7-[(2S)-2-({cyclohexyl[(quinolin-3-ylcarbonyl)amino]acetyl}amino)-3,3-dimethylbutanoyl]-10,10-dimethyl-N-{(1R,2S)-1-[(pyrrolidin-1-ylsulfonyl)carbamoyl]-2-vinylcyclopropyl}-7-azadispiro[3.0.4.1]decane-8-carboxamide] | 7.70
6 | C=C[C@@H]1C[C@]1(NC(=O)[C@@H]1C[C@@]2(CN1C(=O)[C@@H](NC(=O)[C@@H](NC(=O)c1ccnc3ccccc13)C1CCCCC1)C(C)(C)C)C(C)(C)C21CCC1)C(=O)NS(=O)(=O)N1CCCC1 [Compound 197, (5R,8S)-7-[(2S)-2-({cyclohexyl[(quinolin-4-ylcarbonyl)amino]acetyl}amino)-3,3-dimethylbutanoyl]-10,10-dimethyl-N-{(1R,2S)-1-[(pyrrolidin-1-ylsulfonyl)carbamoyl]-2-vinylcyclopropyl}-7-azadispiro[3.0.4.1]decane-8-carboxamide] | 7.40
7 | C=C[C@@H]1C[C@]1(NC(=O)[C@@H]1C[C@@]2(CN1C(=O)[C@@H](NC(=O)[C@@H](NC(=O)c1ccc3c(ccn3C)c1)C1CCCCC1)C(C)(C)C)C(C)(C)C21CCC1)C(=O)NS(=O)(=O)N1CCCC1 [Compound 198, (5R,8S)-7-{(2S)-2-[(cyclohexyl{[(1-methyl-1H-indol-5-yl)carbonyl]amino}acetyl)amino]-3,3-dimethylbutanoyl}-10,10-dimethyl-N-{(1R,2S)-1-[(pyrrolidin-1-ylsulfonyl)carbamoyl]-2-vinylcyclopropyl}-7-azadispiro[3.0.4.1]decane-8-carboxamide] | 7.40
8 | C=C[C@@H]1C[C@]1(NC(=O)[C@@H]1C[C@@]2(CN1C(=O)[C@@H](NC(=O)[C@@H](NC(=O)c1cnc(C)cn1)C1CCCCC1)C(C)(C)C)C(C)(C)C21CCC1)C(=O)NS(=O)(=O)N1CCCC1 [Compound 199, (5R,8S)-7-{(2S)-2-[(cyclohexyl{[(5-methylpyrazin-2-yl)carbonyl]amino}acetyl)amino]-3,3-dimethylbutanoyl}-10,10-dimethyl-N-{(1R,2S)-1-[(pyrrolidin-1-ylsulfonyl)carbamoyl]-2-vinylcyclopropyl}-7-azadispiro[3.0.4.1]decane-8-carboxamide] | 7.85
9 | C=C[C@@H]1C[C@]1(NC(=O)[C@@H]1C[C@@]2(CN1C(=O)[C@@H](NC(=O)[C@@H](NC(=O)CN(C)C)C1CCCCC1)C(C)(C)C)C(C)(C)C21CCC1)C(=O)NS(=O)(=O)N1CCCC1 [Compound 200, (5R,8S)-7-{(2S)-2-[(cyclohexyl{[(dimethylamino)acetyl]amino}acetyl)amino]-3,3-dimethylbutanoyl}-10,10-dimethyl-N-{(1R,2S)-1-[(pyrrolidin-1-ylsulfonyl)carbamoyl]-2-vinylcyclopropyl}-7-azadispiro[3.0.4.1]decane-8-carboxamide] | 8.10
10 | C=C[C@@H]1C[C@]1(NC(=O)[C@@H]1C[C@@]2(CN1C(=O)[C@@H](NC(=O)[C@@H](NC(=O)c1cnon1)C1CCCCC1)C(C)(C)C)C(C)(C)C21CCC1)C(=O)NS(=O)(=O)N1CCCC1 [Compound 201, (5R,8S)-7-[(2S)-2-({cyclohexyl[(1,2,5-oxadiazol-3-ylcarbonyl)amino]acetyl}amino)-3,3-dimethylbutanoyl]-10,10-dimethyl-N-{(1R,2S)-1-[(pyrrolidin-1-ylsulfonyl)carbamoyl]-2-vinylcyclopropyl}-7-azadispiro[3.0.4.1]decane-8-carboxamide] | 7.46
11 | C=C[C@@H]1C[C@]1(NC(=O)[C@@H]1C[C@@]2(CN1C(=O)[C@@H](NC(=O)[C@@H](NC(=O)CN1CCN(C)CC1)C1CCCCC1)C(C)(C)C)C(C)(C)C21CCC1)C(=O)NS(=O)(=O)N1CCCC1 [Compound 202, (5R,8S)-7-{(2S)-2-[(cyclohexyl{[(4-methylpiperazin-1-yl)acetyl]amino}acetyl)amino]-3,3-dimethylbutanoyl}-10,10-dimethyl-N-{(1R,2S)-1-[(pyrrolidin-1-ylsulfonyl)carbamoyl]-2-vinylcyclopropyl}-7-azadispiro[3.0.4.1]decane-8-carboxamide] | 7.70
12 | CC[C@@H]1C[C@]1(NC(=O)[C@@H]1C[C@@]2(CN1C(=O)[C@@H](NC(=O)[C@@H](NC(=O)[C@@H]1CCCCN1C(C)C)C1CCCCC1)C(C)(C)C)C(C)(C)C21CCC1)C(=O)NS(=O)(=O)N(CC)CC [Compound 203, (5R,8S)-7-[(2S)-2-{[(2S)-2-cyclohexyl-2-({[(2S)-1-isopropylpiperidin-2-yl]carbonyl}amino)acetyl]amino}-3,3-dimethylbutanoyl]-N-(1-{[(diethylamino)sulfonyl]carbamoyl}-2-ethylcyclopropyl)-10,10-dimethyl-7-azadispiro[3.0.4.1]decane-8-carboxamide] | 8.10

System: HCV
Experiment: not given
Conditions: patients, ribavirin alone; cited from earlier work

Row | SMILES | serum levels of HCV-RNA
13 | NC(=O)c1ncn([C@@H]2O[C@H](CO)[C@@H](O)[C@H]2O)n1 [Ribavirin, ribavirin] | does not lower serum levels of HCV-RNA

Same assay, conditions: ribavirin alone; cited from earlier work

Row | SMILES | patients in whom serum amino transferase levels are reduced to normal
14 | NC(=O)c1ncn([C@@H]2O[C@H](CO)[C@@H](O)[C@H]2O)n1 [Ribavirin, ribavirin] | 40%
